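Five compound concentrations were applied to cells in 96-well plates for 48 hours; endpoints were derived by simple linear interpolation of the resulting dose-response curve. Here, GI50 denotes the concentration required for 50% inhibition of growth.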 Calls of active or inactive are those of the source. Cut-off read from the data, not from the text of the source: active = GI50 up to about 1.1 µM and inactive = higher.

Common to all, as to test: NCI tumour cell line growth inhibition, 48 h
In assay [1] the test system is SN12C.
Assay [2] concerns A549.
In assay [3] the test system is SF-539.
The subject of assay [4] is MDA-MB-231.
The subject of assay [5] is SK-MEL-5.
The test system of assay [6] is CAKI-1.
For assay [7], the system named is NCI-H23.
For assay [8], the system named is IGROV-1.
Assay [9] relates to 786-0.
Assay [10] concerns K562.
The test system of assay [11] is PC-3.
Assay [12] has as its system BT-549.
Assay [13] concerns Hs-578T.
For assay [14], the system named is MCF7.
For assay [15], the system named is HCT-116.
Assay [16] concerns HCT-15.
Assay [17] deals with UACC-257.
Assay [18] has as its system SNB-19.
In assay [19] the test system is HOP-92.

As for `COc1cccc(-c2cc(O)c3cc(OC)ccc3n2)c1`, the GI50 in [1] was 0.685 µM (active); in [2], 0.367 µM (active); in assay [3], 0.188 µM (active); in assay [4], 0.368 µM (active); in [5] it was 0.182 µM (active); in assay [6] it was 0.475 µM (active). The GI50 in [7] was 0.32 µM (active); in assay [8], 0.483 µM (active); in assay [9], 0.376 µM (active); in assay [10] it was 0.128 µM (active); in [11], 0.338 µM (active); in assay [12], 0.392 µM (active). In addition, the GI50 in assay [13] was 0.24 µM (active); in assay [14], 0.364 µM (active); in assay [15], 0.239 µM (active); in assay [16] it was 0.366 µM; in assay [17], 0.865 µM (active); in [18], 0.39 µM (active). For the same compound, in assay [19], the GI50 was 0.488 µM (active).
Turning to `COc1cccc(Nc2nc(-c3cccs3)nc3cc(OC)c(OC)cc23)c1`, the GI50 was 21.3 µM (inactive) in assay [1]; 29 µM (inactive) in assay [2]; 20.9 µM (inactive) in assay [3]; 23 µM (inactive) in assay [4]; 25.4 µM (inactive) in assay [5]; 29 µM (inactive) in assay [6]. Besides, the GI50 in assay [7] is 32.4 µM (inactive); in [8] it was 21.6 µM (inactive); in [9] it was 21.9 µM (inactive); in [10], 37.1 µM (inactive); in assay [11] it was 27.9 µM (inactive); in [12], 25.9 µM (inactive). The GI50 was 27.4 µM (inactive) in assay [13]; 24.5 µM (inactive) in [14]; 26.4 µM (inactive) in [15]; 26.6 µM in [16]; 36.8 µM (inactive) in [17]; 28.4 µM (inactive) in assay [18]. Further, the GI50 in assay [19] is 25 µM (inactive).
As for `Cc1ccc2c(c1)-c1c(C#N)c(N)nc(-c3ccccc3)c1CCS2(=O)=O`, the GI50 in assay [1] was 17.7 µM (inactive); in assay [2], 11 µM (inactive); in [3] it was 6.35 µM (inactive); in [4], 17.5 µM (inactive); in [5], 3.03 µM (inactive); in [6], 10.5 µM (inactive). In addition, the GI50 was 8.65 µM (inactive) in assay [7]; 5.31 µM (inactive) in assay [8]; 6.38 µM (inactive) in assay [9]; 1.97 µM (inactive) in [10]; 13.4 µM (inactive) in assay [11]; 12.1 µM (inactive) in assay [12]. Moreover, the GI50 in assay [13] was 5.98 µM (inactive); in assay [14] it was 4.48 µM (inactive); in assay [15], 6.38 µM (inactive); in assay [16], 4.54 µM; in assay [17] it was 6.31 µM (inactive); in assay [18], 4.16 µM (inactive). The GI50 in assay [19] is 56.5 µM (inactive).
In the case of `O=c1[nH]nc(-c2ccccc2)n1-n1cnnc1`, the GI50 in assay [1], in assay [2], in assay [3], in assay [4], in [5] and in assay [6] was > 100 µM (inactive) each time. Besides, the GI50 in assay [7], in assay [8], in assay [9], in assay [10], in assay [11] and in assay [12] was > 100 µM (inactive) each time. Moreover, the GI50 in assay [13] was > 100 µM (inactive); in assay [14], > 100 µM (inactive); in assay [15], > 100 µM (inactive); in [16], over 100 µM; in assay [17], > 100 µM (inactive); in [18], > 100 µM (inactive). In addition, the GI50 in [19] is > 100 µM (inactive).
Regarding `COC(=N)C1(C#N)NC(c2ccsc2)C(C#N)(C#N)NC1c1ccsc1` (centres undefined), the GI50 in assay [1] is > 100 µM (inactive); in assay [2], > 100 µM (inactive); in assay [3], > 100 µM (inactive); in assay [4] it was 76.7 µM (inactive); in [5], > 100 µM (inactive); in assay [6], > 100 µM (inactive). In addition, the GI50 in assay [7] is > 100 µM (inactive); in assay [8], > 100 µM (inactive); in assay [9] it was > 100 µM (inactive); in [10], > 100 µM (inactive); in assay [11], 81.1 µM (inactive); in assay [12], > 100 µM (inactive). The GI50 is > 100 µM (inactive) in assay [13]; > 100 µM (inactive) in assay [14]; > 100 µM (inactive) in [15]; over 100 µM in assay [16]; > 100 µM (inactive) in assay [17]; > 100 µM (inactive) in [18]. The GI50 in assay [19] was 60.7 µM (inactive).
Turning to `CSc1ccn(C2CC(F)C(CO)O2)c(=O)n1` (centres undefined), the GI50 in assay [1], in assay [2], in [3], in assay [4], in [5] and in assay [6] was > 100 µM (inactive) each time. The GI50 in assay [7], in assay [8], in assay [9], in assay [10], in assay [11] and in [12] was > 100 µM (inactive) throughout. The GI50 in assay [13] was > 100 µM (inactive); in [14], > 100 µM (inactive); in [15], > 100 µM (inactive); in assay [16], over 100 µM; in [17], > 100 µM (inactive); in assay [18] it was > 100 µM (inactive). Further, the GI50 in assay [19] was > 100 µM (inactive).
Turning to `Cc1cc(O)c(C(C)C)cc1/N=C/c1ccccc1O`, the GI50 is 4.54 µM (inactive) in assay [1]; 18.5 µM (inactive) in assay [2]; 30.8 µM (inactive) in assay [3]; 1.73 µM (inactive) in [4]; 6.08 µM (inactive) in assay [5]; 12.1 µM (inactive) in assay [6]. The GI50 in assay [7] is 15.2 µM (inactive); in assay [8], 8.43 µM (inactive); in [9] it was 5.73 µM (inactive); in assay [10], 1.26 µM (inactive); in [11], 5.08 µM (inactive); in [12], 8.3 µM (inactive). The GI50 in assay [13] was 8.73 µM (inactive); in assay [14] it was 7.26 µM (inactive); in [15] it was 4 µM (inactive); in assay [16], 3.97 µM; in [17], 9.35 µM (inactive); in [18], 17.5 µM (inactive). Also, the GI50 in assay [19] is 0.621 µM (active).
On to `COc1cc(-c2nc3ccccn3c2/N=C/c2cc(Br)cc(Br)c2O)ccc1O`, for which the GI50 in [1] was 19.5 µM (inactive); in assay [2], > 100 µM (inactive); in assay [3], 27.4 µM (inactive); in assay [4], 15.6 µM (inactive); in [5], 25.5 µM (inactive); in assay [6] it was 29.2 µM (inactive). The GI50 in assay [7] was 24.3 µM (inactive); in assay [8] it was 22.9 µM (inactive); in assay [9], 18 µM (inactive); in assay [10], 28.6 µM (inactive); in assay [11], 22.6 µM (inactive); in [12], 20.3 µM (inactive). The GI50 is 26.1 µM (inactive) in assay [13]; 22.3 µM (inactive) in assay [14]; 18.4 µM (inactive) in [15]; 19 µM in [16]; 27.1 µM (inactive) in assay [17]; 26.1 µM (inactive) in assay [18]. Also, in assay [19], the GI50 is 23.4 µM (inactive).
Regarding `O=C1c2ccccc2CC12Cc1ccc3c(c1C2)CCC3` (centres undefined), the GI50 in assay [1] was 26.7 µM (inactive); in [2] it was 17.5 µM (inactive); in [3], 27.5 µM (inactive); in assay [4], 12 µM (inactive); in assay [5], 15.5 µM (inactive); in assay [6] it was 26.8 µM (inactive). The GI50 in assay [7] was 28.8 µM (inactive); in [8], 25.5 µM (inactive); in assay [9] it was 20.6 µM (inactive); in assay [10], 22.3 µM (inactive); in [11] it was 26 µM (inactive); in assay [12], 35.8 µM (inactive). The GI50 in assay [13] was 21 µM (inactive); in assay [14] it was 16.9 µM (inactive); in [15], 16.9 µM (inactive); in [16], 14.6 µM; in [17], 11.7 µM (inactive); in assay [18] it was 48.1 µM (inactive). Also, the GI50 in assay [19] is 14 µM (inactive).
On to `CSCCCNC(=O)c1csc(-c2csc(CCNC(=O)CNC(=O)OC(C)(C)C)n2)n1`, for which the GI50 was > 100 µM (inactive) in assay [1]; > 100 µM (inactive) in [2]; > 100 µM (inactive) in [3]; > 100 µM (inactive) in [4]; 47.4 µM (inactive) in assay [5]; > 100 µM (inactive) in [6]. Moreover, the GI50 in assay [7] was 77.6 µM (inactive); in assay [8], > 100 µM (inactive); in assay [9], > 100 µM (inactive); in [10], > 100 µM (inactive); in assay [11] it was > 100 µM (inactive); in [12], 35.4 µM (inactive). Also, the GI50 was > 100 µM (inactive) in assay [13]; 46.6 µM (inactive) in [14]; > 100 µM (inactive) in [15]; over 100 µM in assay [16]; > 100 µM (inactive) in assay [17]; > 100 µM (inactive) in assay [18]. Moreover, the GI50 in assay [19] was > 100 µM (inactive).
On to `COc1cc2c(cc1OC)[C@H]1C(=O)c3cc4c(cc3[C@H]1N(C)C2=O)OCO4`, for which the GI50 in assay [1] is 2.83 µM (inactive); in assay [2], 21.8 µM (inactive); in assay [3], 3.94 µM (inactive); in assay [4] it was 28 µM (inactive); in assay [5], 1.96 µM (inactive); in [6] it was 3.13 µM (inactive). In addition, the GI50 is 5.2 µM (inactive) in assay [7]; 11.2 µM (inactive) in assay [8]; 4.41 µM (inactive) in [9]; 0.869 µM (active) in [10]; 9.04 µM (inactive) in assay [11]; > 49.4 µM (inactive) in assay [12]. The GI50 in [13] was > 94.6 µM (inactive); in assay [14] it was 2.4 µM (inactive); in assay [15] it was 2.22 µM (inactive); in [16], 14.7 µM; in assay [17], 6.32 µM (inactive); in assay [18] it was 6.35 µM (inactive). In addition, in assay [19], the GI50 is 22.2 µM (inactive).

(Values after ChEMBL document CHEMBL1201862, “PubChem BioAssay data set” (2004).)
